Source: patent US7022700B2, “Method of increasing neutrophil production using optically-pure (R)-2,3-benzodiazepines” (Vela Pharmaceuticals, Inc., priority 2002, dated 2006)
Marks after values point to notes of the source that are not given here.

Legend:
[1] = tested on: central benzodiazepine (BZ) receptors; settings: cited from earlier work
[2] = molecular target: peripheral BZ receptors (Homo sapiens, UniProt P30536); settings: cited from earlier work
[3] = tested on: lymphocyte; settings: in vitro; cited from earlier work
[4] = tested on: IL-2 production; settings: in vitro; cited from earlier work
[5] = tested on: neutrophil production (absolute neutrophil count); test: Increase in neutrophil production in 16-day study in rat; format: in vivo
Description: Animals were identified using an implanted microchip identification device encoded with a unique number. Each animal was dosed daily via oral gavage with either a test substance (R-tofisopam) or control, starting on Day 1 and through day 15. The control article was 0.5% low viscosity carboxymethylcellulose (CMC) (Lot No. 74231) and 0.4% Tween 80® (lot no. QJ1033) in reverse osmosis water.
The animals were sacrificed on Day 16 (with the exception of three males and one female which died on test or was sacrificed before the scheduled termination, and which are not included in the mean neutrophil count data). Neutrophil counts in Table 2, below, are reported as a mean value of the count for the animals of each group surviving and sacrificed on Day 16.
The normal range of absolute neutrophil counts is […] for male and 0.2–2.4×10^3 cells/μL for female rats. For each sex, groups 2–4 were compared with the control group (Group 1M or 1F). Group comparisons were evaluated at the 5.0%, two-tailed probability level. Data marked with * represents a statistically significant difference from the corresponding control group.

[6] = in vivo; cited from earlier work
[7] = female rats, group 2F, 100 mg/kg/day oral gavage days 1-15
[8] = female rats, group 3F, 200 mg/kg/day oral gavage days 1-15
[9] = female rats, group 4F, 400 mg/kg/day oral gavage days 1-15
[10] = male rats, group 2M, 100 mg/kg/day oral gavage days 1-15
[11] = male rats, group 3M, 200 mg/kg/day oral gavage days 1-15
[12] = male rats, group 4M, 400 mg/kg/day oral gavage days 1-15

Chain of peripheral BZ receptors (P30536 whole entry): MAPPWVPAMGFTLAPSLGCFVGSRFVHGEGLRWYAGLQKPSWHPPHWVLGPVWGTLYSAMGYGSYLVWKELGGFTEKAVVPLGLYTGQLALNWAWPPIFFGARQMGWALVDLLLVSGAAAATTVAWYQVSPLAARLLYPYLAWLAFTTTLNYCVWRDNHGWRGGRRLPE

For `CCC1C(C)=NN=C(c2ccc(OC)c(OC)c2)c2cc(OC)c(OC)cc21` (racemic) [tofisopam], the “interaction with central benzodiazepine (BZ) receptors” value [1] is given as “does not interact”, the “binding to peripheral BZ receptors” value [2] is given as “binds only weakly” and the mitogen-induced lymphocyte proliferation [3] is given as “enhances”. The IL-2 production [4] was “enhances”.

In the case of `CC[C@H]1C(C)=NN=C(c2ccc(OC)c(OC)c2)c2cc(OC)c(OC)cc21` [R-tofisopam, (R)-1-(3,4-dimethoxyphenyl)-4-methyl-5-ethyl-7,8-dimethoxy-5H-2,3-benzodiazepine], the “Mean % change (day 16)” value [5, 7] is reported as 29* %, the “Mean Neutrophil count (day 16)” value [5, 7] is reported as 2.4* × 10^3/μL and the “Mean % change (day 16)” value [5, 8] is reported as 47* %. The “Mean Neutrophil count (day 16)” value [5, 8] was 6.0* × 10^3/μL, the “Mean % change (day 16)” value [5, 9] was 63* % and the “Mean Neutrophil count (day 16)” value [5, 9] was 11.6* × 10^3/μL. For the same molecule, the “neutrophil levels versus control group” value ([5]; male and female rats, 100-400 mg/kg/day oral gavage, 5.0% two-tailed probability level) was “significantly increased in a dose-dependant manner”, the “Mean % change (day 16)” value [5, 10] was 43* % and the “Mean Neutrophil count (day 16)” value [5, 10] was 5.7* × 10^3/μL. For the same molecule, the “Mean % change (day 16)” value [5, 11] was 45* %, the “Mean Neutrophil count (day 16)” value [5, 11] was 7.4* × 10^3/μL and the “Mean % change (day 16)” value [5, 12] was 57* %. For the same molecule, the “Mean Neutrophil count (day 16)” value [5, 12] was 12.9* × 10^3/μL.

B1: Nupogen: recombinant version of a human protein, G-CSF (granulocyte-colony stimulating factor) (protein, chains of the INN, looked up)
chain: MTPLGPASSLPQSFLLKCLEQVRKIQGDGAALQEKLCATYKLCHPEELVLLGHSLGIPWAPLSSCPSQALQLAGCLSQLHSGLFLYQGLLQALEGISPELGPTLDTLQLDVADFATTIWQQMEELGMAPALQPTQGAMPAFASAFQRRAGGVLVASHLQSFLEVSYRVLRHLAQP
For B1, the elimination half-life [6] is given as 3.5 h.

B2: Neulasta: a longer acting derivative of filgrastim (protein, chains of the INN, looked up)
chain: TPLGPASSLPQSFLLKCLEQVRKIQGDGAALQEKLCATYKLCHPEELVLLGHSLGIPWAPLSSCPSQALQLAGCLSQLHSGLFLYQGLLQALEGISPELGPTLDTLQLDVADFATTIWQQMEELGMAPALQPTQGAMPAFASAFQRRAGGVLVASHLQSFLEVSYRVLRHLAQP
modifications: PEG 20 kDa
notes: a longer acting derivative of filgrastim
For B2, the elimination half-life [6] is listed as 15 to 80 h.
